Experimental data published in patent US9885088B2, “Rapid phenotypic diagnosis of pathogens and drug resistance using transcriptional expression signatures” (priority 2010, dated 2018).
“Also recorded” adds a separate entry of the source.

Key:
M. tuberculosis [1] = experiment: microbe, parasite or virus in culture; format: cell-based
M. tuberculosis [2] = format: cell-based

With `NNC(=O)c1ccncc1` [Isoniazid] the “Sensitive (S) or Resistant (R)” value (M. tuberculosis [1]) was “S and R”, the “increase in minimal inhibitory concentration (MIC)” value (M. tuberculosis [1]) was greater than 100 fold and the “increase in the MIC” value (M. tuberculosis [1]) was 8 fold. The “minimal inhibitory concentration (MIC)” value (M. tuberculosis [1]) was greater than 6.4 µg/mL, the “expression signature (MSD Z-score)” value (M. tuberculosis [2]) was “resistant signature” and the “expression signature induction upon exposure” value (M. tuberculosis [2]) was “no expression signature induction; also recorded: clearly shows induction of an expression signature”. For the same molecule, the transcriptional response (M. tuberculosis [2]) was “failed to elicit a transcriptional response” and the “transcriptional response / expression signature” value (M. tuberculosis [2]) was “responds in a susceptible manner; also recorded: susceptible signature”.

`[H]/N=C(/N)N[C@H]1[C@H](O)[C@@H](O)[C@H](O[C@@H]2O[C@@H](C)[C@](O)(C=O)[C@H]2O[C@@H]2O[C@@H](CO)[C@H](O)[C@@H](O)[C@@H]2NC)[C@@H](N/C(N)=N\[H])[C@@H]1O` [Streptomycin] was tested, and the “Sensitive (S) or Resistant (R)” value (M. tuberculosis [1]) was “S and R”.
